Columns and labels:
Assay type in all cases: cell-based
[1] = tested on: OCI-LY10 cells; test: Inhibitory activity on OCI-LY10 cell proliferation (MTS); conditions: Homo sapiens, 72 h
Description: (§1) The anti-tumor efficacy of the compounds was tested by measuring their inhibitory effects on OCI-LY10 and Mino cell proliferation. OCI-LY10 and Mino cells were cultured in RPMI-1640 medium containing 10% fetal calf serum. OCI-LY10 and Mino cells were digested, inoculated in a 96-well plate at a cell concentration of 10000 cells/well, and incubated overnight at 37° C., 5% CO2. Compounds of different concentrations (1000 nM, 4-fold dilution, 8 points) were added to the 96-well plate and incubated for 72 h (LY10) or 168 h (Mino) at 37° C. and 5% CO2, and then 20 uL of MTS was added to each well. After incubation for 2 h, 25 μl of 10% SDS was added to each well to terminate the reaction. The absorbance at 490 nm and 650 nm were measured with a microplate reader. IC50 was calculated using GraphPad Prism 5.0.

[2] = target: T1, BTK (Homo sapiens, UniProt Q06187); test: BTK degradation activity test in Mino cells; conditions: 16 h incubation, Western blot or Elisa
T1 construct: endogenous in cells; host or cells: Mino cells
T1 sequence (Q06187 whole entry): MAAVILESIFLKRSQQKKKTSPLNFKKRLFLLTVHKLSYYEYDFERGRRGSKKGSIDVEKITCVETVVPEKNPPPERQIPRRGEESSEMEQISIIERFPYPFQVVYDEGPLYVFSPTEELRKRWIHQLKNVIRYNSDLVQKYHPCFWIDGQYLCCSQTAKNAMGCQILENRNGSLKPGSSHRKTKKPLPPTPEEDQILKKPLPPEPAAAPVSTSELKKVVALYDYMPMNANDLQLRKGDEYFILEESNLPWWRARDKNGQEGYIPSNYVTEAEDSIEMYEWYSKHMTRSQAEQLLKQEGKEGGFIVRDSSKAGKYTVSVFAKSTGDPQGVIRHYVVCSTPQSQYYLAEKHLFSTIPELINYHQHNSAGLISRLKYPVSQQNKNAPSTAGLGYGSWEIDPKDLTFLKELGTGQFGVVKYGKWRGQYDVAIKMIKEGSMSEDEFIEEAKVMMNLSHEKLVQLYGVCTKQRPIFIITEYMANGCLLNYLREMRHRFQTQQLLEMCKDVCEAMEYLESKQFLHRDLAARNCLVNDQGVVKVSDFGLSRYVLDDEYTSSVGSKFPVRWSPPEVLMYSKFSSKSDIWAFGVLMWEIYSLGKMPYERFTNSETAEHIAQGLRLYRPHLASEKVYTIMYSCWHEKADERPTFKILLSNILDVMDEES
Method in brief: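 DC50 derived by curve fitting of BTK degradation rates versus untreated control across compound concentrations. Mino cells were exposed for 16 h; BTK levels in lysates, normalised via BCA protein, measured by Western blot or ELISA.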

[3] = tested on: Mino cells; test: Inhibitory activity on Mino cell proliferation (MTS); conditions: Homo sapiens, 168 h incubation
Description: as §1

Row | Structure (SMILES) | IC50 [1] [nM] | DC50 [2] [nM] | IC50 [3] [nM]
1 | CN1CCN([C@@H]2CCCN(c3nnc(C(N)=O)c(Nc4ccc(C5CCN(CC6CCN(c7ccc8c(c7)C(=O)N(C7CCC(=O)NC7=O)C8=O)CC6)CC5)c(F)c4)n3)C2)C1=O (stereo partly drawn) [Compound 129, 5-((4-(1-((1-(2-(2,6-dioxopiperidin-3-yl)-1,3-dioxoisoindolin-5-yl)piperidin-4-yl)methyl)piperidin-4-yl)-3-fluorophenyl)amino)-3-((R)-3-(3-methyl-2-oxoimidazolin-1-yl)piperidin-1-yl)-1,2,4-triazin-6-carboxamide] | 0.14 | < 1 | 3.09
2 | CN1CCN([C@@H]2CCCN(c3nnc(C(N)=O)c(Nc4ccc(N5CCN(CC6CCN(c7ccc8c(c7)C(=O)N(C7CCC(=O)NC7=O)C8)CC6)CC5)c(F)c4)n3)C2)C1=O (stereo partly drawn) [Compound 168, 5-((4-(4-((1-(2-(2,6-dioxopiperidin-3-yl)-3-oxoisoindolin-5-yl)piperidin-4-yl)methyl)piperazin-1-yl)-3-fluorophenyl)amino)-3-((R)-3-(3-methyl-2-oxoimidazolidin-1-yl)piperidin-1-yl)-1,2,4-triazin-6-carboxamide] | 0.79 | < 1 | 3.77
3 | CN1CCN([C@@H]2CCCN(c3nnc(C(N)=O)c(Nc4ccc(N5CCN(CC6CCN(c7cc8c(cc7F)C(=O)N(C7CCC(=O)NC7=O)C8=O)CC6)CC5)c(F)c4)n3)C2)C1=O (stereo partly drawn) [Compound 170, 5-((4-(4-((1-(2-(2,6-dioxopiperidin-3-yl)-6-fluoro-1,3-dioxoisoindolin-5-yl)piperidin-4-yl)methyl)piperazin-1-yl)-3-fluorophenyl)amino)-3-((R)-3-(3-methyl-2-oxoimidazolidin-1-yl)piperidin-1-yl)-1,2,4-triazin-6-carboxamide] | 1.25 | < 1 | 4.64
4 | Cc1cc(N2CCC(CN3CCN(c4ccc(Nc5nc(N6CCC[C@@H](N7CCN(C)C7=O)C6)nnc5C(N)=O)cc4F)CC3)CC2)ccc1C(=O)NC1CCC(=O)NC1=O (stereo partly drawn) [Compound 180, 5-((4-(4-((1-(4-((2,6-dioxopiperidin-3-yl)carbamoyl)-3-methylphenyl)piperidin-4-yl)methyl)piperazin-1-yl)-3-fluorophenyl)amino)-3-((R)-3-(3-methyl-2-oxoimidazolidin-1-yl)piperidin-1-yl)-1,2,4-triazin-6-carboxamide] | < 1 | < 1 | 1.07
5 | CN1CCN([C@@H]2CCCN(c3nnc(C(N)=O)c(Nc4ccc(N5CCN(CC6CCN(c7ccc(NC8CCC(=O)NC8=O)nc7)CC6)CC5)c(F)c4)n3)C2)C1=O (stereo partly drawn) [Compound 202, 5-((4-(4-((1-(6-((2,6-dioxopiperidin-3-yl)amino)pyridin-3-yl)piperidin-4-yl)methyl)piperazin-1-yl)-3-fluorophenyl)amino)-3-((R)-3-(3-methyl-2-oxoimidazolidin-1-yl)piperidin-1-yl)-1,2,4-triazin-6-carboxamide] | 1.05 | < 1 | 6.83

Now from value to compound, other results behind:

Row | IC50 [1] [nM] | DC50 [2] [nM] | Structure (SMILES) | IC50 [3] [nM]
6 | 0.39 | < 1 | CN1CCN([C@@H]2CCCN(c3nnc(C(N)=O)c(Nc4ccc(C5CCN(C(=O)C6CCN(c7ccc8c(c7)C(=O)N(C7CCC(=O)NC7=O)C8=O)C6)CC5)cc4)n3)C2)C1=O (stereo partly drawn) [Compound 127, 5-((4-(1-(1-(2-(2,6-dioxopiperidin-3-yl)-1,3-dioxoisoindolin-5-yl)pyrrolidin-3-carbonyl)piperidin-4-yl)phenyl)amino)-3-((R)-3-(3-methyl-2-oxoimidazolin-1-yl)piperidin-1-yl)-1,2,4-triazin-6-carboxamide] | 2.04
7 | 0.08 | < 1 | CN1C(=O)N([C@@H]2CCCN(c3nnc(C(N)=O)c(Nc4ccc(C5CCN(CC6CCN(c7ccc8c(c7)C(=O)N(C7CCC(=O)NC7=O)C8=O)CC6)CC5)cc4)n3)C2)CC12CC2 (stereo partly drawn) [Compound 138, 5-((4-(1-((1-(2-(2,6-dioxopiperidin-3-yl)-1,3-dioxoisoindolin-5-yl)piperidin-4-yl)methyl)piperidin-4-yl)phenyl)amino)-3-((R)-3-(4-methyl-5-oxo-4,6-diazaspiro[2.4]heptan-6-yl)piperidin-1-yl)-1,2,4-triazin-6-carboxamide] | 3.11
8 | 2.19 | < 1 | NC(=O)c1nnc(N2CCC[C@@H](N3CCN(CC(F)(F)F)C3=O)C2)nc1Nc1ccc(C2CCN(CC3CCN(c4ccc5c(c4)C(=O)N(C4CCC(=O)NC4=O)C5=O)CC3)CC2)cc1 (stereo partly drawn) [Compound 141, 5-((4-(1-((1-(2-(2,6-dioxopiperidin-3-yl)-1,3-dioxoisoindolin-5-yl)piperidin-4-yl)methyl)piperidin-4-yl)phenyl)amino)-3-((R)-3-(2-oxo-3-(2,2,2-trifluoroethyl)imidazolin-1-yl)piperidin-1-yl)-1,2,4-triazin-6-carboxamide] | 3.92
9 | 0.45 | < 1 | CN1CCN([C@@H]2CCCN(c3nnc(C(N)=O)c(Nc4ccc(N5CCN(CC6CCN(c7ccc8c(c7)CN(C7CCC(=O)NC7=O)C8=O)CC6)CC5)c(F)c4)n3)C2)C1=O (stereo partly drawn) [Compound 167, 5-((4-(4-((1-(2-(2,6-dioxopiperidin-3-yl)-1-oxoisoindolin-5-yl)piperidin-4-yl)methyl)piperazin-1-yl)-3-fluorophenyl)amino)-3-((R)-3-(3-methyl-2-oxoimidazolidin-1-yl)piperidin-1-yl)-1,2,4-triazin-6-carboxamide] | 2.42
10 | 0.52 | < 1 | CN1CCN([C@@H]2CCCN(c3nnc(C(N)=O)c(Nc4ccc(N5CCN(CC6CCN(c7ccc(N8CCC(=O)NC8=O)cn7)CC6)CC5)c(F)c4)n3)C2)C1=O [Compound 196, (R)-5-((4-(4-((1-(5-(2,4-dioxotetrahydropyrimidin-1(2H)-yl)pyridin-2-yl)piperidin-4-yl)methyl)piperazin-1-yl)-3-fluorophenyl)amino)-3-(3-(3-methyl-2-oxoimidazolidin-1-yl)piperidin-1-yl)-1,2,4-triazin-6-carboxamide] | 3.77
11 | 2.65 | < 1 | CN1CCN([C@@H]2CCCN(c3nnc(C(N)=O)c(Nc4ccc(N5CCN(CC6CCN(c7ccc(NC8CCC(=O)NC8=O)cn7)CC6)CC5)c(F)c4)n3)C2)C1=O (stereo partly drawn) [Compound 203, 5-((4-(4-((1-(5-((2,6-dioxopiperidin-3-yl)amino)pyridin-2-yl)piperidin-4-yl)methyl)piperazin-1-yl)-3-fluorophenyl)amino)-3-((R)-3-(3-methyl-2-oxoimidazolidin-1-yl)piperidin-1-yl)-1,2,4-triazin-6-carboxamide] | 1.25

— patent US20240360146A1, “BRUTON'S TYROSINE KINASE AND MUTANT DEGRADER, COMPOSITION AND APPLICATION THEREOF” (HANGZHOU HEALZEN THERAPEUTICS CO., LTD., priority 2021, published 2024)
